In patent US20050090529A1, “3,5 Disubstituted indazole compounds with nitrogen-bearing 5-membered heterocycles, pharmaceutical compositions, and methods for mediating or inhibiting cell proliferation” (PFIZER INC, priority 2003, published 2005):

Test system: Cyclin-dependent kinase
Test: Cyclin-dependent kinase inhibition, % inhibition at 10 nM (library Examples 99-270)
Type: biochemical
Details: 10 nM compound
Outline: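 Enzyme starts the reaction at 30° C, which runs 20 min with 25 μM [³²P/³³P]ATP and protein substrate (pH 7.4, 10 mM MgCl2, 2% DMSO). After EDTA quench, membrane-bound labelled substrate is read by phosphorimaging following acid washes.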

| % Inhib @ 10 nM | Compound |
| --- | --- |
| 30% | CCNCc1cncc(-c2ccc3[nH]nc(-c4ncc(C(=O)N5CCCC(Cc6ncccn6)CC5)[nH]4)c3c2)c1C (stereo not drawn) [Example 261, ethyl({4-methyl-5-[3-(5-{[4-(pyrimidin-2-ylmethyl)azepan-1-yl]carbonyl}-1H-imidazol-2-yl)-1H-indazol-5-yl]pyridin-3-yl}methyl)amine] |
| 59% | CCNCc1cncc(-c2ccc3[nH]nc(-c4ncc(C(=O)N5CCC(Cc6cccc(CO)c6)CC5)[nH]4)c3c2)c1C [Example 262, (3-[(1-{[2-(5-{5-[(ethylamino)methyl]-4-methylpyridin-3-yl}-1H-indazol-3-yl)-1H-imidazol-5-yl]carbonyl}piperidin-4-yl)methyl]phenyl}methanol] |
| 69% | CCNCc1cncc(-c2ccc3[nH]nc(-c4ncc(C(=O)N5CCC(Cc6ccc(C(N)=O)cc6)CC5)[nH]4)c3c2)c1C [Example 263, 4-[(1-{[2-(5-{5-[(ethylamino)methyl]-4-methylpyridin-3-yl}-1H-indazol-3-y)-1H-imidazol-5-yl]carbonyl}piperidin-4-yl)methyl]benzamide] |
| 29% | CCNCc1cncc(-c2ccc3[nH]nc(-c4ncc(C(=O)NCCc5nnc(-c6cnccn6)o5)[nH]4)c3c2)c1C [Example 264] |
| 29% | CCNCc1cncc(-c2ccc3[nH]nc(-c4ncc(C(=O)N5CCCC(O)(Cn6cccn6)CC5)[nH]4)c3c2)c1C (stereo not drawn) [Example 265, 1-{[2-(5-{5-[(ethylamino)methyl]-4-methylpyridin-3-yl}-1H-indazol-3-yl)-1H-imidazol-5-yl]carbonyl}-4-(1H-pyrazol-1-ylmethyl)azepan-4-ol] |
| 18% | CCNCc1cncc(-c2ccc3[nH]nc(-c4ncc(C(=O)N5CCC(O)(CN6CCOCC6)CC5)[nH]4)c3c2)c1C [Example 266, 1-{[2-(5-{5-[(ethylamino)methyl]-4-methylpyridin-3-yl}-1H-indazol-3-yl)-1H-imidazol-5-yl]carbonyl}-4-(morpholin-4-ylmethyl)piperidin-4-ol] |
| 21% | CCNCc1cncc(-c2ccc3[nH]nc(-c4ncc(C(=O)N5CCCC(O)(CN6CCCC6=O)CC5)[nH]4)c3c2)c1C (stereo not drawn) [Example 267, 1-[(1-{[2-(5-{5-[(ethylamino)methyl]-4-methylpyridin-3-yl}-1H-indazol-3-yl)-1H-imidazol-5-yl]carbonyl}-4-hydroxyazepan-4-yl)methyl]pyrrolidin-2-one] |
| 15% | CCNCc1cncc(-c2ccc3[nH]nc(-c4ncc(C(=O)N5CCCC(O)(CN6CCOCC6)CC5)[nH]4)c3c2)c1C (stereo not drawn) [Example 268] |
| 34% | CCNCc1cncc(-c2ccc3[nH]nc(-c4ncc(C(=O)N5CCCC(COCC6CC6)C5)[nH]4)c3c2)c1C (stereo not drawn) [Example 269, [(5-(3-[5-({3-[(cyclopropylmethoxy)methyl]piperidin-1-yl}carbonyl)-1H-imidazol-2-yl]-1H-indazol-5-yl}-4-methylpyridin-3-yl)methyl]ethylamine] |
| 27% | CCNCc1cncc(-c2ccc3[nH]nc(-c4ncc(C(=O)NCCc5nnc(CC(C)C)o5)[nH]4)c3c2)c1C [Example 270, 2-(5-{5-[(ethylamino)methyl]-4-methylpyridin-3-yl}-1H-indazol-3-yl)-N-[2-(5-isobutyl-1,3,4-oxadiazol-2-yl)ethyl]-1H-imidazole-5-carboxamide] |

Target: T1, CDK2/Cyclin A (Homo sapiens, UniProt P24941)
T1 construct: made in house; host or cells: CDK2: insect cells (baculovirus); cyclin A: E. coli
Test: Inhibition of CDK2/Cyclin A retinoblastoma kinase activity (apparent Ki)
Type: biochemical
Details: read-out: CDK2 Ki
Experimental: Cyclin-dependent kinase activity was measured by quantifying the enzyme-catalyzed, time-dependent incorporation of radioactive phosphate from [^32P]ATP or [^33P]ATP into a protein substrate. […] Reactions were initiated with enzyme, incubated at 30° C., and terminated after 20 minutes by the addition of ethylenediaminetetraacetic acid (EDTA) to 250 mM. […] Radioactivity was quantified by exposing the dried membranes to a phosphorimager.
Apparent Ki values were measured by assaying enzyme activity in the presence of different inhibitor compound concentrations and subtracting the background radioactivity measured in the absence of enzyme. Inhibition data were fit to an equation for competitive inhibition using Kaleidagraph (Synergy Software), or were fit to an equation for competitive tight-binding inhibition using the software KineTic (BioKin, Ltd.).
A complex of CDK2 and proteolyzed cyclin A was prepared and purified by gel filtration. […] Ki values were measured as described above.

| Compound | Ki |
| --- | --- |
| CCNCc1cncc(-c2ccc3[nH]nc(-c4nc(-c5ccccc5)c(C(=O)NC)[nH]4)c3c2)c1C [Example 6, 2-[5-(5-Ethylaminomethyl-4-methyl-pyridin-3-yl)-1H-indazol-3-yl]-5-phenyl-3H-imidazole-4-carboxylic acid methylamide] | 50 to 200 nM |
| CCNCc1cncc(-c2ccc3[nH]nc(-c4nc(-c5ccccc5)c(C(=O)NC5CCCCC5)[nH]4)c3c2)c1C [Example 12, 2-[5-(5-Ethylaminomethyl-4-methyl-pyridin-3-yl)-1H-indazol-3-yl]-5-phenyl-3H-imidazole-4-carboxylic acid cyclohexylamide] | 50 to 200 nM |
| CCNCc1cncc(-c2ccc3[nH]nc(-c4nc(-c5ccccc5)c(C(=O)NCCN(C)C)[nH]4)c3c2)c1C [Example 16, 2-[5-(5-Ethylaminomethyl-4-methyl-pyridin-3-yl)-1H-indazol-3-yl]-5-phenyl-3H-imidazole-4-carboxylic acid (2-dimethylamino-ethyl)-amide] | > 200 nM |
| CCNCc1cncc(-c2ccc3[nH]nc(-c4nc(-c5ccccc5)c(C(=O)NCCCO)[nH]4)c3c2)c1C [Example 17, 2-[5-(5-Ethylaminomethyl-4-methyl-pyridin-3-yl)-1H-indazol-3-yl]-5-phenyl-3H-imidazole-4-carboxylic acid (3-hydroxy-propyl)-amide] | 50 to 200 nM |
| CCNCc1cncc(-c2ccc3[nH]nc(-c4nc(-c5ccccc5)c(C(=O)NCCCCO)[nH]4)c3c2)c1C [Example 18, 2-[5-(5-Ethylaminomethyl-4-methyl-pyridin-3-yl)-1H-indazol-3-yl]-5-phenyl-3H-imidazole-4-carboxylic acid (4-hydroxy-butyl)-amide] | > 200 nM |
| CCNCc1cncc(-c2ccc3[nH]nc(-c4nc5c([nH]4)CCCC5)c3c2)c1C [Example 21, Ethyl-{4-methyl-5-[3-(4,5,6,7-tetrahydro-1H-benzoimidazol-2-yl)-1H-indazol-5-yl]-pyridin-3-ylmethyl}-amine] | < 50 nM |
| CCNCc1cncc(-c2ccc3[nH]nc(-c4nc(-c5ccc(OC)c(OC)c5)c[nH]4)c3c2)c1C [Example 33, (5-{3-[4-(3,4-Dimethoxy-phenyl)-1H-imidazol-2-yl]-1H-indazol-5-yl}-4-methyl-pyridin-3-ylmethyl)-ethyl-amine] | < 50 nM |
| CCNCc1cncc(-c2ccc3[nH]nc(-c4nc(-c5ccc(OC)cc5)c[nH]4)c3c2)c1C [Example 34, Ethyl-(5-{3-[4-(4-methoxy-phenyl)-1H-imidazol-2-yl]-1H-indazol-5-yl}-4-methyl-pyridin-3-ylmethyl)-amine] | < 50 nM |
| Cc1c(N)cncc1-c1ccc2[nH]nc(-c3nc4c([nH]3)CCCC4)c2c1 [Example 36, 4-Methyl-5-[3-(4,5,6,7-tetrahydro-1H-benzoimidazol-2-yl)-1H-indazol-5-yl]-pyridin-3-ylamine] | < 50 nM |
| CCc1nc(-c2n[nH]c3ccc(-c4cncc(N)c4C)cc23)[nH]c1CC [Example 37, 5-[3-(4,5-Diethyl-1H-imidazol-2-yl)-1H-indazol-5-yl]-4-methyl-pyridin-3-ylamine] | < 50 nM |
| Cc1c(N)cncc1-c1ccc2[nH]nc(-c3nc(-c4cccc(F)c4)c[nH]3)c2c1 [Example 38, 5-{3-[4-(3-Fluoro-phenyl)-1H-imidazol-2-yl]-1H-indazol-5-yl}-4-methyl-pyridin-3-ylamine] | < 50 nM |
| Cc1c(N)cncc1-c1ccc2[nH]nc(-c3nc(-c4ccccc4)c[nH]3)c2c1 [Example 39, 4-Methyl-5-[3-(4-phenyl-1H-imidazol-2-yl)-1H-indazol-5-yl]-pyridin-3-ylamine] | < 50 nM |
| Cc1c(N)cncc1-c1ccc2[nH]nc(-c3nc(-c4ccc(F)cc4)c[nH]3)c2c1 [Example 40, 5-{3-[4-(4-Fluoro-phenyl)-1H-imidazol-2-yl]-1H-indazol-5-yl}-4-methyl-pyridin-3-ylamine] | < 50 nM |
| CNCc1cncc(-c2ccc3[nH]nc(-c4ncc[nH]4)c3c2)c1C [Example 45, {5-[3-(1H-Imidazol-2-yl)-1H-indazol-5-yl]-4-methyl-pyridin-3-ylmethyl}-methyl-amine] | < 50 nM |
| CCNCc1cncc(-c2ccc3[nH]nc(-c4nc(C(=O)NCc5ccccn5)c[nH]4)c3c2)c1C [Example 52, 2-(5-{5-[(ethylamino)methyl]-4-methylpyridin-3-yl}-1H-indazol-3-yl)-N-(pyridin-2-ylmethyl)1H-imidazole-5-carboxamide] | < 50 nM |
| CCNCc1cncc(-c2ccc3[nH]nc(-c4ncc(C(=O)N(CC)CC)[nH]4)c3c2)c1C [Example 56, N,N-diethyl-2-(5-{5-[(ethylamino)methyl]-4-methylpyridin-3-yl}-1H-indazol-3-yl)-1H-imidazole-5-carboxamide] | < 50 nM |
| CCNCc1cncc(-c2ccc3[nH]nc(-c4nc(C(=O)N5CCN(C)CC5)c[nH]4)c3c2)c1C [Example 57, N-{[4-methyl-5-(3-{5-[(4-methylpiperazin-1-yl)carbonyl]-1H-imidazol-2-yl}-1H-indazol-5-yl)pyridin-3-yl]methyl}ethanamine] | < 50 nM |
| CCNCc1cncc(-c2ccc3[nH]nc(-c4nc(C(=O)NC5CCCC5)c[nH]4)c3c2)c1C [Example 58, N-cyclopentyl-2-(5-{5-[(ethylamino)methyl]-4-methylpyridin-3-yl}-1H-indazol-3-yl)-1H-imidazole-5-carboxamide] | < 50 nM |

The next lines start with the values.

| Ki | Compound |
| --- | --- |
| < 50 nM | CCNCc1cncc(-c2ccc3[nH]nc(-c4ncc(C(=O)N5CCN(c6ccccc6)CC5)[nH]4)c3c2)c1C [Example 59, N-{[4-methyl-5-(3-{5-[(4-phenylpiperazin-1-yl)carbonyl]-1H-imidazol-2-yl}-1H-indazol-5-yl)pyridin-3-yl]methyl}ethanamine] |
| < 50 nM | CCNCc1cncc(-c2ccc3[nH]nc(-c4ncc(C(=O)N5C[C@@H](C)O[C@@H](C)C5)[nH]4)c3c2)c1C [Example 60, N-({5-[3-(5-{[(2R,6S)-2,6-dimethylmorpholin-4-yl]carbonyl}-1H-imidazol-2-yl)-1H-indazol-5-yl]-4-methylpyridin-3-yl}methyl)ethanamine] |
